Laboratory results taken from patent US8946226B2, “Use of CDK inhibitor for the treatment of glioma” (Nerviano Medical Sciences S.r.l., priority 2008, dated 2015).

Experiments:
[1] = Levels of compound in brain and plasma by LC/MS/MS; assay type: in vivo, Han Wistar rats; settings: rat; for Brain levels: average
Experimental: The animals were sacrificed on day 6 at 2 and 6 hours after dosing. Brain and plasma were taken at the sacrifice time. Blood was put in heparinised plastic tubes, kept in ice-water bath, and then centrifuged (10 minutes, 1200 g at 4° C.). Brain and plasma samples were stored in a freezer at −80° C. until analysis. The levels of compound of formula (I) were analysed by LC/MS/MS.

[2] = Radioactivity distribution in brain by autoradioluminography, plasma by LSC; assay type: in vivo, Sprague Dawley rats; settings: 14C-labelled, single oral 20 mg/kg as maleate salt, rat
Experimental: Animals were sacrificed 2, 6 and 24 hours after administration (2 animals at each selected time) and the radioactivity distribution of compound-related material was evaluated in intact brain, after excision. The autoradioluminography method was used to evaluate the quantitative radioactivity distribution in the brain.
The radioactivity distribution was also evaluated in blood and plasma collected from the animals after sacrifice. The radioactivity levels in blood and plasma were determined by Liquid Scintillation Counting (LSC).

[3] = tested on: SF268; assay: Inhibition of cell proliferation (cellular ATP monitoring); assay type: cell-based; settings: Homo sapiens, SF-268; SF268, 72 hours
Experimental: (§1) SF-268, SF-295, SF-539 and U251 cell lines were cultured in RPMI 1640 added with 10% FCS and 2 mM glutamine and U-87MG cell line was cultured in EMEM added with 10% FCS, […] and 1% NEAA. For all the experiments cells were seeded at the density of 1×10^4/cm^2, the day after treatment with the compound for the prescribed duration and then collected at the reported times.
(§2) Cells were washed and counted 72 hours after the treatment. Cell proliferation was determined by a cellular adenosine triphosphate monitoring system. Cell proliferation was compared to control cells. The concentration inhibiting cell proliferation by 50% (IC50) was calculated.

[4] = tested on: SF295; assay: as above; assay type: cell-based; settings: Homo sapiens, SF-295; SF295, 72 hours
Experimental: as §1, §2

[5] = tested on: SF539; assay: as above; assay type: cell-based; settings: Homo sapiens, SF-539; SF539, 72 hours
Experimental: as §1, §2

[6] = tested on: U251; assay: as above; assay type: cell-based; settings: Homo sapiens, U-251; U251, 72 hours
Experimental: as §1, §2

[7] = tested on: U87MG; assay: as above; assay type: cell-based; settings: Homo sapiens, U-87 MG, 72 hours
Experimental: as §1, §2

[8] = tested on: U251; assay: Analysis of BrdU incorporation (FACS); assay type: cell-based, human; settings: U251, 24 hour-treatment
Experimental: as §1
(§3) BrdU (5-bromo-2′ deoxyuridine) was added to the cell culture at the final concentration of 30 μM for the last hour of a 24 hour-treatment. Cells were washed with PBS, fixed in 70% ethanol and stored at −20° C. At the moment of the analysis cells were centrifuged, washed with 1% FCS in PBS and DNA denaturated with HCl 2N for 20 minutes. After a wash in Na2B4O7 0.1M pH 8.5, cells were incubated with a solution of 0.5% Tween20 in PBS+1% FCS for 15 minutes and then centrifuged. The pellets were resuspended in 150 μl of a 1:10 diluted unconjugated anti-BrdU monoclonal antibody (Becton Dickinson) and incubated for 1 hour at room temperature. After a wash in PBS, the incubation with 0.5% Tween20 was repeated; then the secondary antibody was added (1:50 diluted FITC-conjugated goat anti mouse immunoglobulin (Jackson Lab.)). After one hour at room temperature the cells were rinsed again, counterstained with propidium iodide (2 μg/ml+12.5 μg/ml DNAse-free RNAse) overnight, then analyzed by FACS.

[9] = tested on: SF268; assay: Analysis of BrdU incorporation (FACS); assay type: cell-based; settings: SF268, 24 hour-treatment
Experimental: as §1, §3

[10] = tested on: SF295; assay: Analysis of BrdU incorporation (FACS); assay type: cell-based; settings: SF295, 24 hour-treatment
Experimental: as §1, §3

[11] = tested on: SF539; assay: Analysis of BrdU incorporation (FACS); assay type: cell-based; settings: SF539, 24 hour-treatment
Experimental: as §1, §3

[12] = tested on: U87MG; assay: Analysis of BrdU incorporation (FACS); assay type: cell-based; settings: 24 hour-treatment
Experimental: as §1, §3

[13] = tested on: U251; assay: Acridine orange staining to evaluate autophagy (FACS); assay type: cell-based, human; settings: U251, 3 μM
Experimental: as §1
(§4) During the last 15 minutes of incubation, acridine orange (1 μg/ml) was added to the cells that were then collected, washed with PBS and analyzed by FACS for their fluorescence emission. Acridine orange moves freely to cross biological membranes but, when in the cytoplasm and nucleolus, fluoresces bright green and dim red; in the acidic vacuoles generated by autophagy appears bright red.

[14] = tested on: SF268; assay: as above; assay type: cell-based; settings: SF268, 3 μM
Experimental: as §1, §4

[15] = tested on: SF295; assay: as above; assay type: cell-based; settings: SF295, 3 μM
Experimental: as §1, §4

[16] = tested on: SF539; assay: as above; assay type: cell-based; settings: SF539, 6 μM
Experimental: as §1, §4

[17] = tested on: U87MG; assay: as above; assay type: cell-based; settings: 3 μM
Experimental: as §1, §4

[18] = tested on: all the tested glioma cells; assay: Inhibition of cell proliferation, summary over cell lines; assay type: cell-based; settings: 72 hours, read-out: IC50 (inhibit proliferation), range over cell lines
Experimental: as §1, §2

[19] = tested on: all the tested glioma cells; assay: Acridine orange staining to evaluate autophagy, summary over cell lines; assay type: cell-based
Experimental: as §1, §4

[20] = tested on: U251 cells; assay: Mode of action by Western blot analysis; assay type: cell-based, human; settings: U251 cells treated for 24 hours, 1 and 3 μM, FIG. 1
Experimental: (§5) Treated cells were lysed by adding SDS sample buffer (0.125M Tris-HCl pH6.8, 5% SDS). Samples were heated to 95° C. for 5 minutes and then sonicated using an Ultrasonic 2000 ARTEK. Lysed cells were centrifuged at 13,000 RPM for 10 minutes. Protein quantification was determined using BCA buffer (Pierce) and a BSA standard curve. 20 μg protein extract per well were loaded and separated by SDS-PAGE gel 7.5-10% (PAGE-PLUS 40% concentrate AMRESCO). The gel was blotted onto nitrocellulose filters (Hybond Amersham) in a buffer containing 25 mM Tris HCl pH 8.3, 192 mM Glycine and 20% methanol. The filters were saturated in 5% low-fat milk in TBS containing 0.1% Tween 20 (TBS-T) for 2 hours at room temperature and than incubated overnight at 4° C. with the primary monoclonal followed by washes in TBS-T and incubation using a secondary anti mouse antibody. The bands were visualized using the “Super Signal West Pico” Pierce.

[21] = tested on: SF-539 cells; assay: Mode of action by Western blot analysis; assay type: cell-based; settings: SF-539 cells treated for 6 hours, 3 μM, FIG. 2
Experimental: as §5

[22] = tested on: all glioma cell lines; assay: Mode of action by Western blot analysis; assay type: cell-based; settings: independently from the status of Rb pathway
Experimental: as §5

[23] = tested on: U251 human glioma cells; assay type: in vivo
Experimental: Balb, Nu/Nu male mice, from Harlan (Italy), were maintained in cages with paper filter cover, food and bedding sterilized and water acidified. 2.5×10^6 U251 human glioma cells (from the American Type Culture Collection) were injected subcutaneously in athymic mice. […] Tumor growth and body weight were measured every 3 days. Tumor growth was assessed by caliper. The two diameters were recorded and the tumor weight was calculated according the following formula: length (mm)×width^2/2. Toxicity was evaluated on the basis of body weight reduction.

[24] = tested on: U251 cells; assay: Efficacy on intracranially implanted glioma tumor model; assay type: in vivo, Athymic male nude mice; settings: 40 mg/kg bid OS, FIG. 3
Experimental: Animals that underwent surgical procedures were anesthetized following one of the above mentioned protocols, i.e. Ketamin, 80-100 mg/kg i.p.+Xilazin: 10 mg/kg i.p.; Isofluorane: 1.5-2%. Athymic male nude mice, aged 6-8 weeks were anesthetized, placed under the stereotaxic apparatus and gently fixed with ear bars and into the head holder. Skin of the head was cut longitudinally (parallel to ears) and skull of the mouse discovered. With the X and Y axis controller of the apparatus, bregma (interception between median sagittal and anterior coronal sutures to perform injection into the cerebral nuclei) and lambda (interception between median sagittal suture and posterior coronal suture to perform injection into the cerebellum) were identified as point 0. The following coordinates were set in the apparatus and the point of injection identified. With a microdrill a small hole was done in the desired point. Cells were aspirated with the Hamilton syringe (usually […]) just prior injection (a short mix of cells before aspiration was performed to avoid precipitation of cells). By pointing to the hole, Z axis was fixed to 0 and syringe gently inserted into the brain until reaching the right coordinate (−3.0 mm depth). U251 cells were injected at the speed of 1 μl per minute. […] After the end of the surgery mice were monitored for recovery until complete wakening.

SMILES: CNC(=O)c1nn(C)c2c1C(C)(C)Cc1cnc(Nc3ccc(N4CCN(C)CC4)cc3)nc1-2 [compound of formula (I), 8-[4-(4-methyl-piperazin-1-yl)-phenylamino]-1,4,4-trimethyl-4,5-dihydro-1H-pyrazolo[4,3-h]quinazoline-3-carboxylic acid methylamide]
- Kp ([1]; Han Wistar, brain/plasma, oral 60 mg/kg for 6 days, assuming a density equal to 1, read-out: brain levels times higher than plasma levels): 6.1 to 9.6
- concentration at 2 h ([1]; Han Wistar, plasma, oral 60 mg/kg for 6 consecutive days, day 6, 2 hours post-dosing): 9.8 µM
- concentration at 6 h ([1]; Han Wistar, plasma, oral 60 mg/kg for 6 consecutive days, day 6, 6 hours post-dosing): 8.4 µM
- Brain levels ([1]; oral 60 mg/kg for 6 consecutive days, day 6, 2 hours post-dosing): 88.9 nmoles/gr of tissue
- Brain levels ([1]; oral 60 mg/kg for 6 consecutive days, day 6, 6 hours post-dosing): 69.4 nmoles/gr of tissue
- Brain (total radioactivity) ([2]; 2 h): 4.6 μg eq/g
- Cerebellum (total radioactivity) ([2]; 2 h): 4.4 μg eq/g
- Plasma (total radioactivity) ([2]; 2 h): 1.43 μg eq/g
- Brain (total radioactivity) ([2]; 6 h): 1.4 μg eq/g
- Cerebellum (total radioactivity) ([2]; 6 h): 1.5 μg eq/g
- Plasma (total radioactivity) ([2]; 6 h): 0.89 μg eq/g
- Brain (total radioactivity) ([2]; 24 h): 0.4 μg eq/g
- Cerebellum (total radioactivity) ([2]; 24 h): 0.4 μg eq/g
- Plasma (total radioactivity) ([2]; 24 h): 0.14 μg eq/g
- IC50 [3]: 2500 nM
- IC50 [4]: 5400 nM
- IC50 [5]: 1400 nM
- IC50 [6]: 2800 nM
- IC50 [7]: 1600 nM
- % BrdU inhib [8]: 74%
- % BrdU inhib [9]: 78%
- % BrdU inhib [10]: 74%
- % BrdU inhib [11]: 39%
- % BrdU inhib [12]: 92%
- Autophagy % [13]: 58 (3 μM) %
- Autophagy % [14]: 70 (3 μM) %
- Autophagy % [15]: 68 (3 μM) %
- Autophagy % [16]: 35 (6 μM) %
- Autophagy % [17]: 50 (3 μM) %
- IC50 [18]: 1400 to 5400 nM
- induce autophagy, % of the cells, range over cell lines [19]: 36-70%
- Rb phosphorylation [20]: strong inhibition
- cdc6 expression [20]: strong inhibition
- cyclin A expression [20]: strong inhibition
- cyclin B1 expression [20]: strong inhibition
- phosphorylation of TRKA receptor [21]: Inhibition
- phosphorylation of downstream proteins, both in the MAPK and in AKT pathway [21]: Inhibition
- cell cycle related markers [22]: decrease
- Max tumor growth inhibition (%) ([23]; U251 subcutaneous xenograft, oral 40 mg/kg BID for 10 consecutive days): 80%
- Toxicity ([23]; male, Balb Nu/Nu, mouse, in vivo, po, 40 mg/kg, 10 days): 0/8
- increase in the survival time in comparison to vehicle-treated control mice [24]: 30%
